Patent US20200079765A1, “SUBSTITUTED HETEROARYL PYRROLONES AND SALTS THEREOF AND USE THEREOF AS HERBICIDAL ACTIVE SUBSTANCES” (Bayer CropScience Aktiengesellschaft, priority 2016, published 2020)

Legend:
Assay type in all cases: in vivo
Abutilon theophrasti [1] = assay: Post-emergence herbicidal action (Experimental Part 1, A); details: about 3 weeks after treatment, 100% = plants have died, 0% = like control plants
Description: (§1) Seeds of monocotyledonous and dicotyledonous weeds and crop plants were placed in sandy loam in plastic or wood-fiber pots, covered with soil and cultivated in a greenhouse under controlled growth conditions. 2 to 3 weeks after sowing, the test plants were treated at the one-leaf stage. The compounds of the invention, formulated in the form of wettable powders (WP) or as emulsion concentrates (EC), were then sprayed onto the green parts of the plants as aqueous suspension or emulsion with addition of 0.5% additive at a water application rate of 600 l/ha (converted). After the test plants had been kept in the greenhouse under optimum growth conditions for about 3 weeks, the activity of the preparations was rated visually in comparison to untreated controls. For example, 100% activity=the plants have died, 0% activity=like control plants. Tables A1 to A14 below show the effects of selected compounds of the general formula (I) according to Tables I.1 to I.116 on various harmful plants and an application rate corresponding to 1280 g/ha or 320 g/ha, which were obtained by the experimental procedure mentioned above.

Alopecurus myosuroides [2] = assay: as above; details: about 3 weeks after treatment, 100% = plants have died, 0% = like control plants
Description: as §1

Matricaria inodora [3] = assay: as above; details: rated visually after about 3 weeks
Description: as §1

Veronica persica [4] = assay: as above; details: application rate 1280 g/ha, about 3 weeks after treatment, 100% = plants have died, 0% = like control plants
Description: as §1

Stellaria media [5] = assay: as above; details: rated visually after about 3 weeks
Description: as §1

Avena fatua [6] = assay: as above; details: rated visually after about 3 weeks
Description: as §1

Ipomoea purpurea [7] = assay: as above; details: rated visually after about 3 weeks
Description: as §1

Echinochloa crus-galli [8] = assay: as above; details: about 3 weeks after treatment, 100% = plants have died, 0% = like control plants
Description: as §1

Amaranthus retroflexus [9] = assay: as above; details: about 3 weeks after treatment, 100% = plants have died, 0% = like control plants
Description: as §1

Setaria viridis [10] = assay: as above; details: about 3 weeks after treatment, 100% = plants have died, 0% = like control plants
Description: as §1

Viola tricolor [11] = assay: as above; details: rated visually after about 3 weeks
Description: as §1

Hordeum murinum [12] = assay: as above; details: application rate 1280 g/ha, rated visually after about 3 weeks
Description: as §1

Polygonum convolvulus [13] = assay: as above; details: rated visually after about 3 weeks
Description: as §1

Abutilon theophrasti [14] = assay: Pre-emergence herbicidal action (Experimental Part 1, B); details: scored visually after about 3 weeks
Method in brief: (§2)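 Compounds formulated as WP or EC, sprayed onto soil covering sown seeds as aqueous suspension/emulsion with 0.5% additive at 600 l/ha water, at 1280 or 320 g/ha. Greenhouse-grown; after about 3 weeks, visual % effect versus untreated controls (100% = dead, 0% = like control).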

Alopecurus myosuroides [15] = assay: as above; details: scored visually after about 3 weeks
Method in brief: as §2

Matricaria inodora [16] = assay: as above; details: scored visually after about 3 weeks
Method in brief: as §2

Veronica persica [17] = assay: as above; details: application rate 1280 g/ha, scored visually after about 3 weeks
Method in brief: as §2

Stellaria media [18] = assay: as above; details: scored visually after about 3 weeks
Method in brief: as §2

Lolium rigidum = assay: as above; details: application rate 1280 g/ha, scored visually after about 3 weeks
Method in brief: as §2

Avena fatua [19] = assay: as above; details: scored visually after about 3 weeks
Method in brief: as §2

Ipomoea purpurea [20] = assay: as above; details: application rate 1280 g/ha, scored visually after about 3 weeks
Method in brief: as §2

Echinochloa crus-galli [21] = assay: as above; details: application rate 1280 g/ha, scored visually after about 3 weeks
Method in brief: as §2

Amaranthus retroflexus [22] = assay: as above; details: scored visually after about 3 weeks
Method in brief: as §2

Setaria viridis [23] = assay: as above; details: scored visually after about 3 weeks
Method in brief: as §2

Viola tricolor [24] = assay: as above; details: scored visually after about 3 weeks
Method in brief: as §2

Hordeum murinum [25] = assay: as above; details: scored visually after about 3 weeks
Method in brief: as §2

Polygonum convolvulus [26] = assay: as above; details: scored visually after about 3 weeks
Method in brief: as §2

CCC(=O)OC1C(C)=CC(=O)N1c1cc(C(C)(C)C)on1 (stereo not drawn) [I.5-162]
100%: herbicidal activity on Abutilon theophrasti (visual rating vs untreated controls) (Abutilon theophrasti [1]; application rate 320 g/ha) | herbicidal activity on Abutilon theophrasti (visual rating vs untreated controls) (Abutilon theophrasti [1]; application rate 1280 g/ha) | herbicidal activity on Alopecurus myosuroides (visual rating vs untreated controls) (Alopecurus myosuroides [2]; application rate 1280 g/ha) | Matricaria inodora, herbicidal activity (Matricaria inodora [3]; application rate 1280 g/ha) | herbicidal activity on Veronica persica (visual rating vs untreated controls) (Veronica persica [4]) | Stellaria media, herbicidal activity (Stellaria media [5]; application rate 320 g/ha) | Stellaria media, herbicidal activity (Stellaria media [5]; application rate 1280 g/ha) | Avena fatua, herbicidal activity (Avena fatua [6]; application rate 1280 g/ha) | herbicidal activity on Echinochloa crus-galli (visual rating vs untreated controls) (Echinochloa crus-galli [8]; application rate 1280 g/ha) | herbicidal activity on Amaranthus retroflexus (visual rating vs untreated controls) (Amaranthus retroflexus [9]; application rate 1280 g/ha) | herbicidal activity on Setaria viridis (visual rating vs untreated controls) (Setaria viridis [10]; application rate 320 g/ha) | herbicidal activity on Setaria viridis (visual rating vs untreated controls) (Setaria viridis [10]; application rate 1280 g/ha) | Viola tricolor, herbicidal activity (Viola tricolor [11]; application rate 320 g/ha) | Viola tricolor, herbicidal activity (Viola tricolor [11]; application rate 1280 g/ha) | Hordeum murinum, herbicidal activity (Hordeum murinum [12]) | Polygonum convolvulus, herbicidal activity (Polygonum convolvulus [13]; application rate 320 g/ha) | Polygonum convolvulus, herbicidal activity (Polygonum convolvulus [13]; application rate 1280 g/ha) | Abutilon theophrasti, herbicidal activity (Abutilon theophrasti [14]; application rate 320 g/ha) | Abutilon theophrasti, herbicidal activity (Abutilon theophrasti [14]; application rate 1280 g/ha) | Matricaria inodora, herbicidal activity (Matricaria inodora [16]; application rate 320 g/ha) | Matricaria inodora, herbicidal activity (Matricaria inodora [16]; application rate 1280 g/ha) | Veronica persica, herbicidal activity (Veronica persica [17]) | Stellaria media, herbicidal activity (Stellaria media [18]; application rate 320 g/ha) | Stellaria media, herbicidal activity (Stellaria media [18]; application rate 1280 g/ha) | Echinochloa crus-galli, herbicidal activity (Echinochloa crus-galli [21]) | Amaranthus retroflexus, herbicidal activity (Amaranthus retroflexus [22]; application rate 320 g/ha) | Amaranthus retroflexus, herbicidal activity (Amaranthus retroflexus [22]; application rate 1280 g/ha) | Setaria viridis, herbicidal activity (Setaria viridis [23]; application rate 320 g/ha) | Setaria viridis, herbicidal activity (Setaria viridis [23]; application rate 1280 g/ha) | Viola tricolor, herbicidal activity (Viola tricolor [24]; application rate 320 g/ha) | Viola tricolor, herbicidal activity (Viola tricolor [24]; application rate 1280 g/ha) | Hordeum murinum, herbicidal activity (Hordeum murinum [25]; application rate 1280 g/ha) | Polygonum convolvulus, herbicidal activity (Polygonum convolvulus [26]; application rate 320 g/ha) | Polygonum convolvulus, herbicidal activity (Polygonum convolvulus [26]; application rate 1280 g/ha)
90%: herbicidal activity on Alopecurus myosuroides (visual rating vs untreated controls) (Alopecurus myosuroides [2]; application rate 320 g/ha) | Ipomoea purpurea, herbicidal activity (Ipomoea purpurea [7]; application rate 1280 g/ha) | Alopecurus myosuroides, herbicidal activity (Alopecurus myosuroides [15]; application rate 320 g/ha) | Alopecurus myosuroides, herbicidal activity (Alopecurus myosuroides [15]; application rate 1280 g/ha) | Lolium rigidum, herbicidal activity (Lolium rigidum) | Avena fatua, herbicidal activity (Avena fatua [19]; application rate 320 g/ha) | Avena fatua, herbicidal activity (Avena fatua [19]; application rate 1280 g/ha) | Ipomoea purpurea, herbicidal activity (Ipomoea purpurea [20])

CC1=CC(=O)N(c2cc(C(C)(C)C)on2)C1O (stereo not drawn) [I.1-162, 5-Hydroxy-4-methyl-1-(5-tert-butyl-1,2-isoxazol-3-yl)-1,5-dihydro-2H-pyrrol-2-one]
100%: herbicidal activity on Abutilon theophrasti (visual rating vs untreated controls) (Abutilon theophrasti [1]; application rate 320 g/ha) | herbicidal activity on Abutilon theophrasti (visual rating vs untreated controls) (Abutilon theophrasti [1]; application rate 1280 g/ha) | herbicidal activity on Alopecurus myosuroides (visual rating vs untreated controls) (Alopecurus myosuroides [2]; application rate 1280 g/ha) | Matricaria inodora, herbicidal activity (Matricaria inodora [3]; application rate 320 g/ha) | Matricaria inodora, herbicidal activity (Matricaria inodora [3]; application rate 1280 g/ha) | herbicidal activity on Veronica persica (visual rating vs untreated controls) (Veronica persica [4]) | Stellaria media, herbicidal activity (Stellaria media [5]; application rate 320 g/ha) | Stellaria media, herbicidal activity (Stellaria media [5]; application rate 1280 g/ha) | Avena fatua, herbicidal activity (Avena fatua [6]; application rate 1280 g/ha) | Ipomoea purpurea, herbicidal activity (Ipomoea purpurea [7]; application rate 320 g/ha) | Ipomoea purpurea, herbicidal activity (Ipomoea purpurea [7]; application rate 1280 g/ha) | herbicidal activity on Echinochloa crus-galli (visual rating vs untreated controls) (Echinochloa crus-galli [8]; application rate 320 g/ha) | herbicidal activity on Echinochloa crus-galli (visual rating vs untreated controls) (Echinochloa crus-galli [8]; application rate 1280 g/ha) | herbicidal activity on Amaranthus retroflexus (visual rating vs untreated controls) (Amaranthus retroflexus [9]; application rate 320 g/ha) | herbicidal activity on Amaranthus retroflexus (visual rating vs untreated controls) (Amaranthus retroflexus [9]; application rate 1280 g/ha) | herbicidal activity on Setaria viridis (visual rating vs untreated controls) (Setaria viridis [10]; application rate 320 g/ha) | herbicidal activity on Setaria viridis (visual rating vs untreated controls) (Setaria viridis [10]; application rate 1280 g/ha) | Viola tricolor, herbicidal activity (Viola tricolor [11]; application rate 320 g/ha) | Viola tricolor, herbicidal activity (Viola tricolor [11]; application rate 1280 g/ha) | Hordeum murinum, herbicidal activity (Hordeum murinum [12]) | Polygonum convolvulus, herbicidal activity (Polygonum convolvulus [13]; application rate 320 g/ha) | Polygonum convolvulus, herbicidal activity (Polygonum convolvulus [13]; application rate 1280 g/ha) | Abutilon theophrasti, herbicidal activity (Abutilon theophrasti [14]; application rate 320 g/ha) | Abutilon theophrasti, herbicidal activity (Abutilon theophrasti [14]; application rate 1280 g/ha) | Alopecurus myosuroides, herbicidal activity (Alopecurus myosuroides [15]; application rate 1280 g/ha) | Matricaria inodora, herbicidal activity (Matricaria inodora [16]; application rate 320 g/ha) | Matricaria inodora, herbicidal activity (Matricaria inodora [16]; application rate 1280 g/ha) | Veronica persica, herbicidal activity (Veronica persica [17]) | Stellaria media, herbicidal activity (Stellaria media [18]; application rate 320 g/ha) | Stellaria media, herbicidal activity (Stellaria media [18]; application rate 1280 g/ha) | Lolium rigidum, herbicidal activity (Lolium rigidum) | Avena fatua, herbicidal activity (Avena fatua [19]; application rate 1280 g/ha) | Ipomoea purpurea, herbicidal activity (Ipomoea purpurea [20]) | Echinochloa crus-galli, herbicidal activity (Echinochloa crus-galli [21]) | Amaranthus retroflexus, herbicidal activity (Amaranthus retroflexus [22]; application rate 320 g/ha) | Amaranthus retroflexus, herbicidal activity (Amaranthus retroflexus [22]; application rate 1280 g/ha) | Setaria viridis, herbicidal activity (Setaria viridis [23]; application rate 320 g/ha) | Setaria viridis, herbicidal activity (Setaria viridis [23]; application rate 1280 g/ha) | Viola tricolor, herbicidal activity (Viola tricolor [24]; application rate 320 g/ha) | Viola tricolor, herbicidal activity (Viola tricolor [24]; application rate 1280 g/ha) | Hordeum murinum, herbicidal activity (Hordeum murinum [25]; application rate 1280 g/ha) | Polygonum convolvulus, herbicidal activity (Polygonum convolvulus [26]; application rate 320 g/ha) | Polygonum convolvulus, herbicidal activity (Polygonum convolvulus [26]; application rate 1280 g/ha)
90%: herbicidal activity on Alopecurus myosuroides (visual rating vs untreated controls) (Alopecurus myosuroides [2]; application rate 320 g/ha) | Avena fatua, herbicidal activity (Avena fatua [6]; application rate 320 g/ha) | Alopecurus myosuroides, herbicidal activity (Alopecurus myosuroides [15]; application rate 320 g/ha) | Avena fatua, herbicidal activity (Avena fatua [19]; application rate 320 g/ha) | Hordeum murinum, herbicidal activity (Hordeum murinum [25]; application rate 320 g/ha)
